The results in this text go back to publication PMC5928890 (Theranostics, 2018).

The assay concerns the target Aβ(1-42) (Homo sapiens, UniProt P05067). Briefly: Aggregation inhibition by paper-based ECL assay with [Ru. Format: biochemical.

Aβ(1-42), sequence (P05067 672-713): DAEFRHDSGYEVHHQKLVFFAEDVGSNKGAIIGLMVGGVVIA

The term IC50 denotes the point on the concentration scale where inhibition reaches its midpoint. Low readings indicate higher potency, high ones lower potency. In the case of `Nc1c(/N=N/c2ccc(-c3ccc(/N=N/c4cc(S(=O)(=O)O)c5ccccc5c4N)cc3)cc2)cc(S(=O)(=O)O)c2ccccc12` [CR, Congo red], inhibition was half-maximal at 1070 nM (IC50). In other words, the single-digit micromolar range.
